Molecules are shown by their SMILES.

The target in this test is PDE4D3 (Homo sapiens, UniProt Q08499).
Chain of PDE4D3 (Q08499 1-673 isoform Q08499-2): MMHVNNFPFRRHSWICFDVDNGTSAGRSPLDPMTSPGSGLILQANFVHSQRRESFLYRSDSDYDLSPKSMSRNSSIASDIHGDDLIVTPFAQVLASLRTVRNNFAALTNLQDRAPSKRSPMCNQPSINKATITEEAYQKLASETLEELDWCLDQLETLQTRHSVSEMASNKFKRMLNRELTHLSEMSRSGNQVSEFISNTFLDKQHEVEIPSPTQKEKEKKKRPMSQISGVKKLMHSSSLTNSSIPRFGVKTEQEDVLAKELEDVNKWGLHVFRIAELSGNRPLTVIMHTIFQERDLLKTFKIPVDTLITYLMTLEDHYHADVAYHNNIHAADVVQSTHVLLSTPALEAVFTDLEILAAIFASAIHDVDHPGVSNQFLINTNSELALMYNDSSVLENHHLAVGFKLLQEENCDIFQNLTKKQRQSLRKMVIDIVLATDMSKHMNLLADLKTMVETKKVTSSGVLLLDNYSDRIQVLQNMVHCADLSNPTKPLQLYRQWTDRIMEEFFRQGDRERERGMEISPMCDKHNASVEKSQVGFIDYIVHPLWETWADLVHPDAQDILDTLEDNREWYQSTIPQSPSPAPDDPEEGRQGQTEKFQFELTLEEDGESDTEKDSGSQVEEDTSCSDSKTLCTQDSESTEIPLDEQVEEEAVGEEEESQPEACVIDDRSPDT
In general, EC50 refers to the concentration that produces a half-maximal response. Read a low EC50 as a more potent agent. Turning to `Nc1ccc(Cc2cnc(OC(F)F)c(-c3cccc(Cl)c3)c2)cn1` [Example 33, 5-{[5-(3-Chlorophenyl)-6-(difluoromethoxy)pyridin-3-yl]methyl}pyridin-2-amine], the EC50 was < 0.1 µM. In turn, `COc1ncc(Cc2ccc(N(C)C)nc2)cc1-c1cccc(Cl)c1` [Example 34, 5-{[5-(3-Chlorophenyl)-6-methoxypyridin-3-yl]methyl}-N,N-dimethylpyridin-2-amine] returned an EC50 of 0.1 to 1 µM. With `N#Cc1ncc(Cc2cnc(OC(F)F)c(-c3cccc(Cl)c3)c2)cn1` [Example 35, 5-{[5-(3-Chlorophenyl)-6-(difluoromethoxy)pyridin-3-yl]methyl}pyrimidine-2-carbonitrile] the figure was 1 to 10 µM; with `Nc1ncc(Cc2cnc(OC(F)F)c(-c3cccc(Cl)c3)c2)s1` [Example 36, 5-{[5-(3-Chlorophenyl)-6-(difluoromethoxy)pyridin-3-yl]methyl}-1,3-thiazol-2-amine], < 0.1 µM; with `COc1ncc(Cc2ccccc2CO)cc1-c1cccc(Cl)c1` [Example 37, (2-{[5-(3-Chlorophenyl)-6-methoxypyridin-3-yl]methyl}phenyl)methanol], 0.1 to 1 µM. To `COc1ncc(Cc2cnc(N)nc2)cc1-c1cccc(F)c1` [Example 38, 5-{[5-(3-Fluorophenyl)-6-methoxypyridin-3-yl]methyl}pyrimidin-2-amine] belongs < 0.1 µM; to `COc1ncc(Cc2cnc(C#N)nc2)cc1-c1cccc(F)c1` [Example 39, 5-{[5-(3-Fluorophenyl)-6-methoxypyridin-3-yl]methyl}pyrimidine-2-carbonitrile], 1 to 10 µM; to `CCOc1ncc(Cc2cnc(N)nc2)cc1-c1cccc(Cl)c1` [Example 40, 5-{[5-(3-Chlorophenyl)-6-ethoxypyridin-3-yl]methyl}pyrimidin-2-amine], < 0.1 µM.

Compound `CC(C)Oc1ncc(Cc2cnc(N)nc2)cc1-c1cccc(Cl)c1` [Example 41, 5-{[5-(3-Chlorophenyl)-6-(propan-2-yloxy)pyridin-3-yl]methyl}pyrimidin-2-amine] showed an EC50 of 0.1 to 1 µM. The compound `CC(C)Oc1cccc(-c2cc(Cc3cnc(N)nc3)cnc2OC(F)F)c1` [Example 42, 5-{[6-(Difluoromethoxy)-5-[3-(propan-2-yloxy)phenyl]pyridin-3-yl]methyl}pyrimidin-2-amine] showed an EC50 of 1 to 10 µM. The compound `Nc1ncc(Cc2cnc(OC(F)F)c(-c3cccc(OC4COC4)c3)c2)cn1` [Example 43, 5-{[6-(Difluoromethoxy)-5-[3-(oxetan-3-yloxy)phenyl]pyridin-3-yl]methyl}pyrimidin-2-amine] showed an EC50 of 0.1 to 1 µM. `COc1ncc(Cc2cnc(NC(C)=O)nc2)cc1-c1cccc(Cl)c1` [Example 44, N-(5-[{5-(3-Chlorophenyl)-6-methoxypyridin-3-yl]methyl}pyrimidin-2-yl)acetamide] came in with an EC50 of 0.1 to 1 µM. Turning to `CS(=O)(=O)c1ccc(Cc2cnc(OC(F)F)c(-c3cccc(Cl)c3)c2)cc1` [Example 45, 3-(3-Chlorophenyl)-2-(difluoromethoxy)-5-[(4-methanesulfonylphenyl)methyl]pyridine], the EC50 lay in the range of 0.1 to 1 µM. Consider `COc1cc(-c2cc(Cc3cnc(N)nc3)cnc2OC(F)F)ccn1` [Example 46, 5-{[6-(Difluoromethoxy)-5-(2-methoxypyridin-4-yl)pyridin-3-yl]methyl}pyrimidin-2-amine], for which the EC50 is < 0.1 µM.

For `COc1ncc(Cc2cnc(N)nc2)cc1-c1ccnc(OC(F)F)c1` [Example 47, 5-({5-[2-(Difluoromethoxy)pyridin-4-yl]-6-methoxypyridin-3-yl}methyl)pyrimidin-2-amine], the half-maximal effective concentration (EC50) was < 0.1 µM. `COc1ncc(Cc2cnc(C(C)(C)O)nc2)cc1-c1cccc(OC(F)F)c1` [Example 48, 2-[5-({5-[3-(Difluoromethoxy)phenyl]-6-methoxypyridin-3-yl}methyl)pyrimidin-2-yl]propan-2-ol]: the EC50 was < 0.1 µM. As to `COc1ncc(Cc2ccc(C(F)(F)F)nc2)cc1-c1cccc(Cl)c1` [Example 49, 3-(3-Chlorophenyl)-2-methoxy-{[6-(trifluoromethyl)pyridin-3-yl]methyl}pyridine], the EC50 is 0.1 to 1 µM.

Turning to `CC(C)Oc1ccc(Cc2cnc(OC(F)F)c(-c3cccc(Cl)c3)c2)cn1` [Example 50, 3-(3-Chlorophenyl)-2-(difluoromethoxy)-5-{[6-(propan-2-yloxy)pyridin-3-yl]methyl}pyridine], the EC50 lay within 1 to 10 µM. To `CCCOc1ccc(Cc2cnc(OC(F)F)c(-c3cccc(Cl)c3)c2)cn1` [Example 51, 3-(3-Chlorophenyl)-2-(difluoromethoxy)-5-[(6-propoxypyridin-3-yl)methyl]pyridine] belongs 0.1 to 1 µM; to `COc1ncc(Cc2ccc(=O)n(C)c2)cc1-c1cccc(Cl)c1` [Example 52, 5-{[5-(3-Chlorophenyl)-6-methoxypyridin-3-yl]methyl}-1-methyl-1,2-dihydropyridin-2-one], 1 to 10 µM; to `COc1ncc(Cc2ccncc2)cc1-c1cccc(Cl)c1` [Example 53, 3-(3-Chlorophenyl)-2-methoxy-5-(pyridin-4-ylmethyl)pyridine], 0.1 to 1 µM.

`O=C(O)c1ccc(Cc2cnc(OC(F)F)c(-c3cccc(Cl)c3)c2)cn1` [Example 54, 5-{[5-(3-Chlorophenyl)-6-(difluoromethoxy)pyridin-3-yl]methyl}pyridine-2-carboxylic acid]: the EC50 is 1 to 10 µM.

Turning to `COc1ncc(Cc2cnc(OC)c(-c3cccc(Cl)c3)n2)cn1` [Example 55, 3-(3-Chlorophenyl)-2-methoxy-5-[(2-methoxypyrimidin-5-yl)methyl]pyrazine], the EC50 was < 0.1 µM. Consider `CNc1ncc(Cc2cnc(OC)c(-c3cccc(Cl)c3)n2)cn1` [Example 56, 5-{[6-(3-Chlorophenyl)-5-methoxypyrazin-2-yl]methyl}-N-methylpyrimidin-2-amine], for which the half-maximal effective concentration (EC50) is < 0.1 µM. To `COc1ncc(Cc2cnc(NC3CC3)nc2)nc1-c1cccc(Cl)c1` [Example 57, 5-{[6-(3-Chlorophenyl)-5-methoxypyrazin-2-yl]methyl}-N-cyclopropylpyrimidin-2-amine] belongs 0.1 to 1 µM; to `COc1ncc(Cc2cnn(C)c2)nc1-c1cccc(Cl)c1` [Example 58, 3-(3-Chlorophenyl)-2-methoxy-5-[(1-methyl-1H-pyrazol-4-yl)methyl]pyrazine], < 0.1 µM; to `COc1ncc(Cc2ccc(CN)cc2)cc1-c1cccc(Cl)c1` [Example 59, (4-{[5-(3-Chlorophenyl)-6-methoxypyridin-3-yl]methyl}phenyl)methanamine], 0.1 to 1 µM.

`COc1ncc(Cc2ccnc(N)c2)cc1-c1cccc(Cl)c1` [Example 60, 4-{[5-(3-Chlorophenyl)-6-methoxypyridin-3-yl]methyl}pyridin-2-amine] yielded an EC50 of 0.1 to 1 µM. In turn, `COc1ncc(Cc2cc(C)nc(C)c2)cc1-c1cccc(Cl)c1` [Example 61, 3-(3-Chlorophenyl)-5-[(2,6-dimethylpyridin-4-yl)methyl]-2-methoxypyridine] displayed an EC50 of 1 to 10 µM. On to `COc1ncc(Cc2ccnc(C#N)c2)cc1-c1cccc(Cl)c1` [Example 62, 4-{[5-(3-Chlorophenyl)-6-methoxypyridin-3-yl]methyl}pyridine-2-carbonitrile], for which the half-maximal effective concentration (EC50) lay in the range of 1 to 10 µM. `COc1ncc(Cc2ccnc(C(N)=O)c2)cc1-c1cccc(Cl)c1` [Example 63, 4-{[5-(3-Chlorophenyl)-6-methoxypyridin-3-yl]methyl}pyridine-2-carboxamide] returned an EC50 of 1 to 10 µM. Turning to `COc1ncc(Cc2cccnc2)cc1-c1cccc(Cl)c1` [Example 64, 3-(3-Chlorophenyl)-2-methoxy-5-(pyridin-3-ylmethyl)pyridine], the EC50 was in the range of 0.1 to 1 µM. Turning to `COc1ncc(Cc2cncs2)cc1-c1cccc(Cl)c1` [Example 65, 3-(3-Chlorophenyl)-2-methoxy-5-(1,3-thiazol-5-ylmethyl)pyridine], the EC50 is < 0.1 µM. To `COc1ncc(Cc2sc(C)nc2C)cc1-c1cccc(Cl)c1` [Example 66, 3-(3-Chlorophenyl)-5-[(dimethyl-1,3-thiazol-5-yl)methyl]-2-methoxypyridine] belongs < 0.1 µM. To `COc1ncc(Cc2cnc(OC)c(-c3cccc(Cl)c3)c2)cc1C` [Example 67, 3-(3-Chlorophenyl)-2-methoxy-5-[(6-methoxy-5-methylpyridin-3-yl)methyl]pyridine] belongs 0.1 to 1 µM; to `FC(F)Oc1ncc(Cc2cncs2)cc1-c1cccc(Cl)c1` [Example 68, 3-(3-Chlorophenyl)-2-(difluoromethoxy)-5-(1,3-thiazol-5-ylmethyl)pyridine], < 0.1 µM; to `Cc1nc(C)c(Cc2cnc(OC(F)F)c(-c3cccc(Cl)c3)c2)s1` [Example 69, 3-(3-Chlorophenyl)-2-(difluoromethoxy)-5-[(dimethyl-1,3-thiazol-5-yl)methyl]pyridine], < 0.1 µM.

For `NC(=O)c1cncc(Cc2cnc(OC(F)F)c(-c3cccc(Cl)c3)c2)c1` [Example 70, 5-{[5-(3-Chlorophenyl)-6-(difluoromethoxy)pyridin-3-yl]methyl}pyridine-3-carboxamide], the EC50 was 1 to 10 µM. Turning to `NCc1cncc(Cc2cnc(OC(F)F)c(-c3cccc(Cl)c3)c2)c1` [Example 71, (5-{[5-(3-Chlorophenyl)-6-(difluoromethoxy)pyridin-3-yl]methyl}pyridin-3-yl)methanamine], the EC50 is < 0.1 µM. For the compound `Cc1ccc(Cc2cnc(OC(F)F)c(-c3cccc(Cl)c3)c2)cn1` [Example 72, 3-(3-Chlorophenyl)-2-(difluoromethoxy)-5-[(6-methylpyridin-3-yl)methyl]pyridine], the EC50 is < 0.1 µM. On to `Cc1ncc(Cc2cnc(OC(F)F)c(-c3cccc(Cl)c3)c2)s1` [Example 73, 3-(3-Chlorophenyl)-2-(difluoromethoxy)-5-[(2-methyl-1,3-thiazol-5-yl)methyl]pyridine], for which the EC50 is < 0.1 µM. With `FC(F)Oc1ncc(Cc2nccs2)cc1-c1cccc(Cl)c1` [Example 74, 3-(3-Chlorophenyl)-2-(difluoromethoxy)-5-(1,3-thiazol-2-ylmethyl)pyridine] the figure was 0.1 to 1 µM.

The values are drawn from patent US9120770B2, “Substituted pyridine and pyrazine compounds as PDE4 inhibitors” (DART NEUROSCIENCE (CAYMAN) LTD., priority 2013, dated 2015).
